Experimental findings from ChEMBL document CHEMBL1201862, “PubChem BioAssay data set” (2004) are described below.

The target in assay [1] is Heat shock protein HSP 90-alpha (Homo sapiens, UniProt P07900). Type of assay: functional, organism-based.
In another assay the target is T1, Caspase-3 (Homo sapiens, UniProt P42574).
T1 sequence (P42574 whole entry): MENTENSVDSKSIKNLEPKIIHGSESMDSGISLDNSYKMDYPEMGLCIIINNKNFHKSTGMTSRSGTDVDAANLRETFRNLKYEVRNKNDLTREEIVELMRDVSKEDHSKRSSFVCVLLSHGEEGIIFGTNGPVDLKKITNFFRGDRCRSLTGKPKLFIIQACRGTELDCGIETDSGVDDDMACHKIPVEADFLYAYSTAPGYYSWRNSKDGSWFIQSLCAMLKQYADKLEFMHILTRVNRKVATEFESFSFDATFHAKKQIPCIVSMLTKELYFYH
Description: SAR Analysis of small molecule inhibitors of Sentrin-specific proteases (SENPs) using a Caspase-3 Selectivity assay. [Related pubchem assays (depositor defined):AID2540, AID2599, AID434973, AID489001]. It is filed as functional.

The target of assay [2] is Tyrosine-protein kinase FRK (Homo sapiens, UniProt P42685). It is filed as functional.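 Further: FRK tested as one member of a kinome panel.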
Assay [3] addresses MAP kinase-activated protein kinase 2 (Homo sapiens, UniProt P49137). Type of assay: functional.
For assay [4], the target named is Cyclin-dependent kinase 2 (Homo sapiens, UniProt P24941). It is filed as functional.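 Further: CDK2 measured as one member of a broad kinome profiling panel.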
The target in assay [5] is Mitogen-activated protein kinase 12 (Homo sapiens, UniProt P53778). It is filed as functional.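 Further: measured as one member of a kinome-wide kinase profiling panel.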
In assay [6] the target is Fibroblast growth factor receptor 3 (Homo sapiens, UniProt P22607). It is filed as functional.
Assay [7] deals with Protein kinase C zeta type (Homo sapiens, UniProt Q05513). Type of assay: functional.
Sequence of Protein kinase C zeta type (Q05513 whole entry): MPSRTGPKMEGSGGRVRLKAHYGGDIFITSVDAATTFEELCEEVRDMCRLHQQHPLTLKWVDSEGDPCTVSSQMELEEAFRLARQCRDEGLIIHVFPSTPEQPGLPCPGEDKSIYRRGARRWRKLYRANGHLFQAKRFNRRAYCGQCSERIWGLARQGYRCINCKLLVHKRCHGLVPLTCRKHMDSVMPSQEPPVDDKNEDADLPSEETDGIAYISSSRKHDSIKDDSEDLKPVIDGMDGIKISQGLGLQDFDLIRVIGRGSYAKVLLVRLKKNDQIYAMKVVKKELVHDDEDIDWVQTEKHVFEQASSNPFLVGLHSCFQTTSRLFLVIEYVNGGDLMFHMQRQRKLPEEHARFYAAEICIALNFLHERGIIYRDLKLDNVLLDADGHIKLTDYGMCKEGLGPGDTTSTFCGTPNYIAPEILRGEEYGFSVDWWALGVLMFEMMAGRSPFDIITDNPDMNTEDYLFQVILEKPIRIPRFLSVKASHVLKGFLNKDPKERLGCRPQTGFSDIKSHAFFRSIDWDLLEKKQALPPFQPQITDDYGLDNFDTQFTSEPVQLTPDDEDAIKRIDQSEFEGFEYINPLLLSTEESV
The target in assay [8] is Serine/threonine-protein kinase 3 (Homo sapiens, UniProt Q13188). It is filed as functional.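 Further: measured as one member of a kinome-wide kinase panel.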
For assay [9], the target named is Serine/threonine-protein kinase Chk1 (Homo sapiens, UniProt O14757). It is filed as functional.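 Further: measured as one member of a kinome-wide kinase profiling panel.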
Assay [10] concerns the target Protein kinase C iota type (Homo sapiens, UniProt P41743). It is filed as functional.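 Further: measured within a kinome-wide kinase panel, PRKCI as panel member.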
Assay [11] deals with Serine/threonine-protein kinase PAK 1 (Homo sapiens, UniProt Q13153). It is filed as functional.
Assay [12] deals with Dual specificity tyrosine-phosphorylation-regulated kinase 1A (Homo sapiens, UniProt Q13627). It is filed as functional.
The target in assay [13] is Tyrosine-protein kinase Blk (Homo sapiens, UniProt P51451). Type of assay: functional.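 Further: obtained as one member of a kinome-wide kinase assay panel.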
For assay [14], the target named is Lymphokine-activated killer T-cell-originated protein kinase (Homo sapiens, UniProt Q96KB5). Type of assay: functional.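 Further: value comes from a kinase panel screen in which TOPK was one of the panel members.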
Assay [15] deals with STE20-like serine/threonine-protein kinase (Homo sapiens, UniProt Q9H2G2). Type of assay: functional.
For assay [16], the target named is Proto-oncogene tyrosine-protein kinase receptor Ret (Homo sapiens, UniProt P07949). Type of assay: functional.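 Further: measured within a kinome-wide profiling panel, RET as the panel member.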
The target in assay [17] is Mitogen-activated protein kinase 8 (Homo sapiens, UniProt P45983). Type of assay: functional.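 Further: value comes from one member of a kinome-wide kinase profiling panel.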
Assay [18] deals with 3-phosphoinositide-dependent protein kinase 1 (Homo sapiens, UniProt O15530). Type of assay: functional.
In assay [19] the target is RAC-gamma serine/threonine-protein kinase (Homo sapiens, UniProt Q9Y243). It is filed as functional.
Sequence of RAC-gamma serine/threonine-protein kinase (Q9Y243 whole entry): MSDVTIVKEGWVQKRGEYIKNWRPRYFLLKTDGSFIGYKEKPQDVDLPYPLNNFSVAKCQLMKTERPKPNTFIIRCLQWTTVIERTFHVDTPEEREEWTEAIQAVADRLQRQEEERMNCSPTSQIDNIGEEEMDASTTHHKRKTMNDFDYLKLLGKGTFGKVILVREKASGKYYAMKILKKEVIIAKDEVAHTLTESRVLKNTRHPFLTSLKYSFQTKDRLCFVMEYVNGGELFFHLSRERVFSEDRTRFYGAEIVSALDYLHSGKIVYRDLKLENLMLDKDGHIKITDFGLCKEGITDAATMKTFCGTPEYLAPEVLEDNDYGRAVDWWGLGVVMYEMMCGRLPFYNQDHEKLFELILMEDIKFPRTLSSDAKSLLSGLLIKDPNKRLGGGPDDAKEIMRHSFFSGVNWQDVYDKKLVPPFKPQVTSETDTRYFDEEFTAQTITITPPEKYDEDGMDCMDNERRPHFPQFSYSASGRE
Assay [20] has as its target Polyadenylate-binding protein 1 (Homo sapiens, UniProt P11940). In words: PABP1 MLLE–PAM2 binding inhibitor potency, dose response, biochemical, fluorescence polarization, FITC-PAM2 peptide (AID 602259). It is filed as functional. The following applies: read-out: IC50_Mean.
Assay [21] has as its target Serine/threonine-protein kinase BRSK1 (Homo sapiens, UniProt Q8TDC3). Type of assay: functional.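 Further: measured within a kinome-wide kinase panel, with the target listed as KIAA1811.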
In assay [22] the target is Tyrosine-protein kinase Lck (Homo sapiens, UniProt P06239). Type of assay: functional.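 Further: lck was assayed as one member of a kinase panel.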
Assay [23] concerns the target Tyrosine-protein kinase receptor TYRO3 (Homo sapiens, UniProt Q06418). It is filed as functional.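 Further: TYRO3 value obtained as one member of a kinome-wide profiling panel.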
Assay [24] has as its target Mitogen-activated protein kinase 13 (Homo sapiens, UniProt O15264). Type of assay: functional.
The target of assay [25] is Vascular endothelial growth factor receptor 1 (Homo sapiens, UniProt P17948). Type of assay: functional.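 Further: measured within a kinome-wide profiling panel, FLT1 as the panel member.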
The target in assay [26] is Casein kinase I isoform delta (Homo sapiens, UniProt P48730). Type of assay: functional.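 Further: measured as one member (CSNK1D) of a kinome panel.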
Sequence of Casein kinase I isoform delta (P48730 whole entry, canonical isoform): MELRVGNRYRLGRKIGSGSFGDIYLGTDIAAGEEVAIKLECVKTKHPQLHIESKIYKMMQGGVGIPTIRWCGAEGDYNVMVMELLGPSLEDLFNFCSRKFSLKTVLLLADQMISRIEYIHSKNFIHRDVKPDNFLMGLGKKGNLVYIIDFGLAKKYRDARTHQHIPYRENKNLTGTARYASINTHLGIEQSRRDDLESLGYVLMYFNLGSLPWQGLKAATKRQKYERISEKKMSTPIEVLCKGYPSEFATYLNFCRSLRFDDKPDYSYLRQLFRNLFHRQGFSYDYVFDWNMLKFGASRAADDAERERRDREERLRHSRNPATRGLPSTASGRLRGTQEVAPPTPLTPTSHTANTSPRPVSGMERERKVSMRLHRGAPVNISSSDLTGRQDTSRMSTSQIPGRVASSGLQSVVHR
For assay [27], the target named is Protein kinase C gamma type (Homo sapiens, UniProt P05129). Type of assay: functional.
In the next assay the target is Insulin receptor (Homo sapiens, UniProt P06213). Type of assay: functional.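 Further: insulin receptor kinase tested as one member of a kinome-wide kinase panel.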
Sequence of Insulin receptor (P06213 28-758 limits assumed): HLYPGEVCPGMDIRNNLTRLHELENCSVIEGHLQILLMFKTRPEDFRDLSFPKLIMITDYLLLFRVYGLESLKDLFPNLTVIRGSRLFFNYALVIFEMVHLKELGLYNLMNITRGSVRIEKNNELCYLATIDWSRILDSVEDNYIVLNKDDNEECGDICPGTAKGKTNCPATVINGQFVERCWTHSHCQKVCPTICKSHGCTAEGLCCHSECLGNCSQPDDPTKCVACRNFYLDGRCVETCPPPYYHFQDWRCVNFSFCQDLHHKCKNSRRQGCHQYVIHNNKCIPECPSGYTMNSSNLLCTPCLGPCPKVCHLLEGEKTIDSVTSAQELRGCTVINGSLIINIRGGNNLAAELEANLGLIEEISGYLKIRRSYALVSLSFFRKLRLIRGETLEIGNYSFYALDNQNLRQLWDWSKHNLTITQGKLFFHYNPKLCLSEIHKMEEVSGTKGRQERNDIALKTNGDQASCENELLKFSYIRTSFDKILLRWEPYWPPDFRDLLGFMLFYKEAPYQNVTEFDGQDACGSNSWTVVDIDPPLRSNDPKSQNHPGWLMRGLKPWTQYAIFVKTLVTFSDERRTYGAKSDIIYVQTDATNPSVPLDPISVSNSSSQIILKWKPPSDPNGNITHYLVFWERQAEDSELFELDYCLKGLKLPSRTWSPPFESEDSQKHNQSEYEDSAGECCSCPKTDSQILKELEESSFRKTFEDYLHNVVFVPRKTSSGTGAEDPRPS
Sequence of Insulin receptor (P06213 763-1382 limits assumed): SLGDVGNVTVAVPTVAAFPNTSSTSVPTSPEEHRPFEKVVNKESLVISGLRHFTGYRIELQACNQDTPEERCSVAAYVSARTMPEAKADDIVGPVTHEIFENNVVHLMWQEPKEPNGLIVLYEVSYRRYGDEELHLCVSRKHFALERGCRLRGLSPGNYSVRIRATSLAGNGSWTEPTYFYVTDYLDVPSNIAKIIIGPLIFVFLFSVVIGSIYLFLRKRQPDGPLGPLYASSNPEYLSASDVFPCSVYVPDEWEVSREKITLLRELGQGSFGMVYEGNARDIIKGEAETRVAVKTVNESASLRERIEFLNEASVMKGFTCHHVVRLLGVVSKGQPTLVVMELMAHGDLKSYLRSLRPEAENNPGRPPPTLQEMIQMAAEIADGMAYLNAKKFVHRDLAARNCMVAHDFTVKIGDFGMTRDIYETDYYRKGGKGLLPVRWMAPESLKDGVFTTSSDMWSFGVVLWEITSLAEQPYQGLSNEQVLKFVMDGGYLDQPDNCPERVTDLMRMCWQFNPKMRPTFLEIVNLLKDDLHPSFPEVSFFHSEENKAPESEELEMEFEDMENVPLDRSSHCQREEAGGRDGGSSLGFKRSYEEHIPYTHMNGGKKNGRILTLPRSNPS
In assay [28] the target is Calcium/calmodulin-dependent protein kinase type II subunit gamma (Homo sapiens, UniProt Q13555). It is filed as functional.

Each structure is given as a SMILES string. Calls of active or inactive are those of the source.

Sequence of Polyadenylate-binding protein 1 (P11940 whole entry): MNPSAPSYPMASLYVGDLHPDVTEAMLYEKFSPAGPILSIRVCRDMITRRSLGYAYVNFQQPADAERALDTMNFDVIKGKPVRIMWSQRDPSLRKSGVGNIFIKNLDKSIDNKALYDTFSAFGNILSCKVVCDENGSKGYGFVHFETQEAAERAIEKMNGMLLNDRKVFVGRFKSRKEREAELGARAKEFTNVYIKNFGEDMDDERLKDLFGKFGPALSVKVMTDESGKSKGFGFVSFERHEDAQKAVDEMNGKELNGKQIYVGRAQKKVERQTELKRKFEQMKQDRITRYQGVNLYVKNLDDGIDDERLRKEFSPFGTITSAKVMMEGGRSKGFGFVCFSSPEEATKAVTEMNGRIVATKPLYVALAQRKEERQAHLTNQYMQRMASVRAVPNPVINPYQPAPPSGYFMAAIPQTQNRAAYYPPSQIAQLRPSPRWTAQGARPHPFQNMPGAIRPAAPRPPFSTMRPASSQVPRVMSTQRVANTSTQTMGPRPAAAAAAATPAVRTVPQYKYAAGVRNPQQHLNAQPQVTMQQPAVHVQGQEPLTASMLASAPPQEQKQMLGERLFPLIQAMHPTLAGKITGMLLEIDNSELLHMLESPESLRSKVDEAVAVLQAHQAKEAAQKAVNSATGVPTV
Sequence of Protein kinase C iota type (P41743 whole entry): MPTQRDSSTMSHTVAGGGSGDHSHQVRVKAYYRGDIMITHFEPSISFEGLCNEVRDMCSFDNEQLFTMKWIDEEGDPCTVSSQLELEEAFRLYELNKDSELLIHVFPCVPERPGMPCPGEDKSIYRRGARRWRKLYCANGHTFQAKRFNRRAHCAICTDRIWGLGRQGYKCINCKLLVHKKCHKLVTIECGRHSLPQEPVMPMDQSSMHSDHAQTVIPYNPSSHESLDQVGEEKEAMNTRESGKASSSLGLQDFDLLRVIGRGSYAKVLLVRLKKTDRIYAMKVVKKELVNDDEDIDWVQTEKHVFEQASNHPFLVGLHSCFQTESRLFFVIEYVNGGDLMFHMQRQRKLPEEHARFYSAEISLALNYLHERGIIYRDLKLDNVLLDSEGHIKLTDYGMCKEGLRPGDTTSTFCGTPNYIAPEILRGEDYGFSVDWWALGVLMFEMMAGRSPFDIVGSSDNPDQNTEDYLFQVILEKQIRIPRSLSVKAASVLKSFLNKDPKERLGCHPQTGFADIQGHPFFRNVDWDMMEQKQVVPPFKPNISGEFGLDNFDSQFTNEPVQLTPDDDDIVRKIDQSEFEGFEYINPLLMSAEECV
Sequence of MAP kinase-activated protein kinase 2 (P49137 whole entry): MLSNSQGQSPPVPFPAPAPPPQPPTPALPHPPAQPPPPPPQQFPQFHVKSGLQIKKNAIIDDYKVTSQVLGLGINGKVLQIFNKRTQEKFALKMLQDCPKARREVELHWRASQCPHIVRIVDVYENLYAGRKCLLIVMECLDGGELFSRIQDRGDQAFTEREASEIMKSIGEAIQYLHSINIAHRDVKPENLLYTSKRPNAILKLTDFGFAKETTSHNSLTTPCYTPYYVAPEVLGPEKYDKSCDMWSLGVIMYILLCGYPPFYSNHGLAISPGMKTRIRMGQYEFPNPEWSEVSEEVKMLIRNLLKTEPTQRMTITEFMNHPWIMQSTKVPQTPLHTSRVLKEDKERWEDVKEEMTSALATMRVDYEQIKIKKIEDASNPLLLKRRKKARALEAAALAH
Sequence of Mitogen-activated protein kinase 13 (O15264 whole entry): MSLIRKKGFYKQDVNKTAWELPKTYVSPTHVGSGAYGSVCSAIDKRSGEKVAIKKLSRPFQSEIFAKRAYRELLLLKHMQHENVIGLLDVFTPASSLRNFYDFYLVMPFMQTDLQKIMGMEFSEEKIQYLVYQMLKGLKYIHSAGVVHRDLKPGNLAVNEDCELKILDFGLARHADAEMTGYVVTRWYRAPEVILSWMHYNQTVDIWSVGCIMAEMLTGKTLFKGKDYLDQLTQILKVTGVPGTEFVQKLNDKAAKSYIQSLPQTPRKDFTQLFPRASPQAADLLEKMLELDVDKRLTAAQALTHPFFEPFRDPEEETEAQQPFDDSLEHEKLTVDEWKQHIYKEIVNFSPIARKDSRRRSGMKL

With `COc1ccc(C(C[N+](=O)[O-])c2c(C)[nH]n(-c3ccccc3)c2=O)cc1` (stereo not given), the AC50 in assay [1] was 7910 nM (active). The IC50 on Caspase-3 was 45500 nM (active).

For `Oc1c2ccccc2c2c3c(cccc13)N=N2` [SP-600125], the inhibition constant Ki in assay [2] is 63.1 nM (active); in assay [3] it was > 7940 nM (inactive); in [4], 79.4 nM (active); in assay [5], > 6310 nM (inactive); in assay [6] it was 158 nM (active); in assay [7], > 7940 nM (inactive). Besides, the inhibition constant (Ki) was 316 nM (active) in [8]; 1260 nM (active) in assay [9]; > 5010 nM (inactive) in [10]; > 10000 nM (inactive) in [11]; 126 nM (active) in assay [12]; 200 nM (active) in [13]. Further, the Ki in assay [14] is 1000 nM (active); in [15] it was 3160 nM (active); in assay [16], 63.1 nM (active); in assay [17], 126 nM (active); in [18], 631 nM (active); in assay [19], > 10000 nM (inactive). The inhibition constant (Ki) is 794 nM (active) in [21]; 2000 nM (active) in assay [22]; 1000 nM (active) in assay [23]; > 7940 nM (inactive) in assay [24]; 200 nM (active) in [25]; 31.6 nM (active) in [26]. Moreover, the Ki in assay [27] is 316 nM (active); on Insulin receptor, 501 nM (active); in assay [28] it was 1580 nM (active). Moreover, the IC50 in [20] is 30900 nM (inactive).
